In patent US7311893B2, “Amyloid targeting imaging agents and uses thereof” (Neurochem (International) Limited, priority 2000, dated 2007):

System: insoluble amyloid or amyloid plaques
Assay: binding data for amyloid-targeting moieties (FIGS. 1 and 2)
Details: insoluble vs soluble amyloid; data in FIGS. 1 and 2

Molecule	binding to insoluble amyloid or amyloid plaques in preference to soluble amyloid
1,6-hexanedisulfonate	bind insoluble amyloid or amyloid plaques in preference to soluble amyloid
O=S(=O)(O)CCCN1CCN(CCCS(=O)(=O)O)CC1 [1,4-piperazinebis(propanesulfonic acid)]	bind insoluble amyloid or amyloid plaques in preference to soluble amyloid
O=S(=O)(O)CCCNC1(CO)CCCC1 [3-(1-hydroxymethyl-1-cyclopentyl)amino-1-propane sulfonic acid]	bind insoluble amyloid or amyloid plaques in preference to soluble amyloid
O=S(=O)(O)CCCNCCCCCCO [3-(6-hydroxy-1-hexyl)amino-1-propane sulfonic acid]	bind insoluble amyloid or amyloid plaques in preference to soluble amyloid
O=S(=O)(O)CCCN1CC=CCC1 [3-[1-(1,2,3,6-tetrahydropyridinyl)]-1-propanesulfonic acid]	bind insoluble amyloid or amyloid plaques in preference to soluble amyloid
O=S(=O)(O)NCCCO [3-hydroxypropylsulfamic acid]	bind insoluble amyloid or amyloid plaques in preference to soluble amyloid
O=S(=O)(O)CCCCN1CCCCC1 [4-(1-piperidinyl)-1-butanesulfonic acid]	bind insoluble amyloid or amyloid plaques in preference to soluble amyloid
Cc1ccc2nc(-c3ccc(N=NNc4ccc(-c5nc6ccc(C)c(S(=O)(=O)[O-])c6s5)cc4)cc3)sc2c1S(=O)(=O)[O-].[Na+].[Na+] [Thiazole yellow G, reference compound]	bind insoluble amyloid or amyloid plaques in preference to soluble amyloid
NCCCC[C@H](NCCCS(=O)(=O)O)C(=O)O [alpha-N-(3-sulfopropyl)-L-lysine]	bind insoluble amyloid or amyloid plaques in preference to soluble amyloid
COC(=O)CCN1CCc2ccccc2C1.Cl [methyl 2-(2-carboxyethyl)-1,2,3,4-tetrahydroisoquinoline hydrochloride]	bind insoluble amyloid or amyloid plaques in preference to soluble amyloid
